Assay results from US7358091B2, “Device and methods for identifying and treating aspirin non-responsive patients” (Portola Pharmaceuticals, Inc., priority 2004, dated 2008).
Bridge positions count the residues as written; N and C are the ends. Square brackets hold non-standard residues; d marks the D form. Peptide text beside a SMILES is read from it. hArg = N=C(N)NCCCC[C@H](N)C(=O)O; Mpa = O=C(O)CCS

How the values were obtained:
[1] = system: mixed platelet/leukocyte aggregates; assay: Arachidonic acid-/shear-induced platelet aggregation assay in whole blood; type: cell-based; details: 0.8 mM arachidonic acid, 1700/sec followed by 80/sec
Protocol: FIG. 10 is a schematic representation of the AA/shear-induced thrombotic process utilized in our preliminary study. AA (0.8 mM) is added to citrate-anticoagulated blood (37° C. incubation time=1 minute) then perfused via a silastic tubing to a stenosis (high shear rate, 1700/sec: Hγ) followed by a low shear rate area (80/sec: Lγ). Observation of the mixed platelet/leukocyte aggregates is performed under UV at 10× magnification using a fluorescent microscope.
Platelets are labeled in whole blood with Rhodamine 6G as described above. Following addition of AA, blood will be perfused through 2 successive chambers which generate high (1500/sec) and low (50/sec) shear rates. The high shear rate induces platelet activation and aggregation is created by a sudden decrease in capillary diameter. The low shear rate area allows for the real time evaluation/quantification of the size of the platelet/platelet, platelet/leukocyte aggregates that will pass and/or adhere via the Simple PCI software or similar software capable of evaluating the size of the flowing thrombi.
Large mixed platelet/leukocyte aggregates are detectable in the low shear area (observable after less than 30 seconds) when whole blood is treated with 0.8 mM arachidonic acid and perfusion through a small uncoated circular capillary at 1700/sec followed by a larger capillary at 80/sec. […]

[2] = target: T1, P2Y12 receptor (Homo sapiens, UniProt Q9H244); assay: P2Y12 receptor blockade in vitro in whole blood; type: cell-based; details: 5 μM
T1 construct: endogenous in cells; host or cells: platelets in citrate-anticoagulated whole blood of blood donors
Protocol: (§1) FIG. 9 is a representation of the thrombotic deposits formed on type III collagen at 1000/sec in the rectangular perfusion chamber in 2 blood donors, before and after aspirin uptake (325 mg/d for 3 days). Anticoagulated blood (citrate 3.8%, 1:9 v of blood) is collected and added into 5 ml tubes containing either DMSO (vehicle control for the P2Y12 antagonist), a direct P2Y12 antagonist at 5 μM (which totally block the receptor), or a direct P2Y12 antagonist at 5 μM in presence of 20 μM Epinephrine. Anticoagulated blood is perfused through a rectangular capillary (0.2×2 mm, Vitrocom) coated with fibrillar type III collagen at 1000/sec for 4 minutes. Thrombotic deposits are then rinsed for 15 seconds with buffer “C”, fixed for 1 minute in phosphate-buffered glutaraldehyde (2.5%), stained for 45 sec in toluidine blue. Picture is taken at 5 mm from the proximal part of the chamber, and measurement of the grey level performed with Prism software.
Most ACS patients eligible for percutaneous coronary intervention (PCI) are under PLAVIX (clopidogrel bisulfate) therapy. […]

[3] = system: P2Y12-deficient mice; details: injection of epinephrine in vivo; cited from earlier work
[4] = system: P2Y12-deficient mice
Source text: This phenotype is rescued by the injection of epinephrine in vivo (Andre, P. et al., J Clin Invest, 112(3):398-406 (2003)).

[5] = system: aggregation induced by ADP; assay: Aggregation induced by ADP; type: cell-based; details: 100 μM
[6] = system: preformed thrombi on collagen coated surface; assay: Real time thrombosis perfusion chamber assay, destabilization of preformed thrombi; type: cell-based; details: for effect on preformed thrombi, aspirin background: aspirinated blood over preformed aspirinated thrombi; for mean slope after first perfusion (mSAFP), aspirin background: aspirinated blood, aspirin alone = saline control, eptifibatide; for mean slope after first perfusion (mSAFP), aspirin background / mean slope after first perfusion (mSAFP): 2-MeSAMP 100 μM; for mean slope after first perfusion (mSAFP): untreated blood 210 seconds at 1500/sec, then blood treated with agent, eptifibatide 2.4 μM, Ifetroban 0.3 μM; for effect on preformed thrombi: untreated blood background, second perfusion with agent
Protocol: Evaluation of the ability of thromboxane receptor (TP) antagonists to destabilize preformed thrombi was performed as followed in the real time thrombosis perfusion chamber assay (monitoring of fluorescently labeled platelets onto collagen coated surface). Untreated samples of blood were first perfused through the collagen-coated perfusion chamber for 210 seconds at 1500/sec. […] In order to evaluate a possible role for PGD2 in mediating thrombus destabilization, aspirinated blood was perfused in presence of PDG2 over preformed aspirinated thrombi.

[7] = system: thrombus formation on type III collagen; assay: Real time collagen-coated perfusion chamber, kinetics of thrombus formation; type: cell-based, human; details: 2.5 μM, PPACK-anticoagulated blood, collagen type III-coated capillary
Protocol: Phe-Pro-Arg-chloromethylketone (PPACK)-anticoagulated blood is added to a tube containing Rhodamine 6-glucose (Rhodamine 6G) (0.2 mg/ml). Five minutes later, blood is perfused through a rectangular capillary mounted on the stage of an inverted microscope (under ultraviolet (UV) light (Rhodamine filter) platelets appear fluorescent). As the blood flows on the collagen type III-coated capillary chamber, platelets adhere and start building a thrombus. Two frames per second are recorded and analyzed for mean fluorescent intensity for the entire perfusion period. At the end of the perfusion, standard deviation in light intensity is plotted against the time by the Prism software.
After blood collection into either citrate or PPACK (4 ml are needed per perfusion chamber) Rhodamine 6G (0.2 mg/mL) is added to the blood and incubated at 37° C. for 5 minutes. Collagen-coated rectangular glass capillaries (Vitrocom) are mounted on the stage of a fluorescent microscope and illuminated under light, UV, or both. […] Platelet collagen interactions and thrombus formation are recorded in real time with the Simple PCI software. The mean fluorescence intensity parallels the kinetics of the thrombotic process, because all platelets are labeled by rhodamine 6G. The kinetics of the thrombotic process is recorded at 2 frames per second for 5 minutes and plotted versus time.

[8] = system: platelet aggregation; assay: Ultegra RPFA-ASA assay in whole blood; type: cell-based, human; details: aspirin 275 μM added to the blood in vitro; all 5 blood donors; compared with 50% inhibition of P2Y12
Protocol: Whole blood was drawn into 3.2% Sodium citrate vacuum tubes and analyzed using the Ultegra RPFA-ASA assay. Sample results are based on the extent of platelet aggregation, reported in Aspirin Reaction Units (ARU). ARU≥250 is consistent with no platelet dysfunction, ARU<550 is consistent with platelet dysfunction due to aspirin.
The effects of aspirin (275 μM added to the blood in vitro) and 50% inhibition of P2Y12 (corresponding to the extent of inhibition achieved in patients under PLAVIX (clopidogrel bisulfate) treatment) were evaluated in the RPFA-ASA (n=5). A direct P2Y12 antagonist (5-chloro-N-[({4-[7-fluoro-6-(methylamino)-1-oxoisoquinolin-2(1H)-yl]phenyl}amino)carbonyl]thiophene-2-sulfonamide) is used in vitro at a concentration that inhibits 50% of ADP-induced platelet aggregation in PRP as PLAVIX (clopidogrel bisulfate) cannot be used in vitro (it needs to be metabolized by the liver to generate the active metabolite).

[9] = system: thrombotic process on collagen; assay: Fibrillar type III collagen-coated capillary perfusion chamber at arterial shear rates; type: cell-based, human
Protocol: In one example of the perfusion chamber assay of the invention, the assay enables the investigator to evaluate thrombotic process under arterial shear rates in less than 15 minutes after blood draw. The simplicity of the perfusion chamber allows for multiple parallel experiments as the thrombogenic surface is deposited inside a regular glass capillary tube. The system is easy to use as only 2 tubings are needed: a proximal tubing to connect the blood sample to the capillary, and a distal tubing which connects the capillary to the pump. A limited amount of blood is required to reconstitute arterial shear rate conditions (4 ml of blood for 1 perfusion chamber). […]
At the end of the perfusion, the capillary is rinsed for 20 sec and fixed with 2.5% phosphate buffered glutaraldehyde for 1 minute. […] An En Face picture located 5 mm downstream of the proximal part of the capillary is taken, and the grey level of each thrombus or platelets located in a window 400 μm long×400 μm wide is measured (Simple PCI software, Compix Inc. Imaging System). Thrombotic deposits were then embedded in Epon, subsequently cross sectioned (at the same location used for measurement of the grey level) and their mean thrombus volume determined. […]

[10] = system: TxB2 generation; assay: TxB2 generation; type: cell-based, human; details: 325 mg/d ASA for 3 days, compared with baseline, all 5 donors
Protocol: (§2) The effects of aspirin (normal volunteers were drug free for 2 weeks prior to 325 mg/d ASA for 3 days) and 50% inhibition of P2Y12 on arachidonic acid-induced platelet aggregation in PRP, TxB2 generation, PFA-100 with both Collagen/Epinephrine (CEpi) and Collagen/ADP (CADP) cartridges were evaluated. Arachidonic acid-induced platelet aggregation and TxB2 generation were abolished by aspirin treatment compared with baseline for all 5 donors. […] All donors gave the expected prolongation of the CEpi cartridge after aspirin treatment. In addition, 2 out of 5 donors presented unusual phenotypes (FIG. 6). In donor 1, aspirin increased the CADP closure time, whereas in donor 2, P2Y12 antagonism increased closure time of the CEpi cartridge above the limit defined by the manufacturer for aspirin effect.

[11] = system: platelet function under high shear stress; assay: PFA-100 closure time, CEpi and CADP cartridges; type: cell-based, human; details: 325 mg/d ASA for 3 days
Source text: Whole blood was drawn into 3.8% Sodium citrate vacuum tubes and analyzed using the Platelet Function Analyzer (PFA-100). Sample results are based on the platelet function under high shear stress. Platelet adhesion and aggregation are triggered by a biologically active membrane coated with collagen and either epinephrine (EPI) or ADP. Platelets exposed to EPI or ADP under flow conditions are activated on the collagen surface. The time required to full occlusion of an aperture cut in the membrane defines the “closure time” (CT).
as §2

[12] = system: patients; details: human, in vivo; cited from earlier work
[13] = system: thrombotic deposits on type III collagen; assay: Perfusion chamber assay on type III collagen at 1000/sec, end-point grey level; type: cell-based, human; details: citrate blood, 2 donors before and after aspirin 325 mg/d for 3 days, DMSO-treated and P2Y12 antagonism+epinephrine-treated blood
Protocol: as §1
A perfusion chamber assay on type III collagen (DMSO (vehicle) treated (a), full P2Y12 antagonism (b), full P2Y12 antagonism with epinephrine 20 μM(c)) have been performed before and 3 days after a daily dose of aspirin (325 mg).

[14] = system: platelet aggregation in PRP; assay: Arachidonic acid-induced platelet aggregation in PRP; type: cell-based, human; details: 325 mg/d ASA for 3 days, compared with baseline, all 5 donors
Protocol: as §2

T1 sequence (Q9H244 whole entry): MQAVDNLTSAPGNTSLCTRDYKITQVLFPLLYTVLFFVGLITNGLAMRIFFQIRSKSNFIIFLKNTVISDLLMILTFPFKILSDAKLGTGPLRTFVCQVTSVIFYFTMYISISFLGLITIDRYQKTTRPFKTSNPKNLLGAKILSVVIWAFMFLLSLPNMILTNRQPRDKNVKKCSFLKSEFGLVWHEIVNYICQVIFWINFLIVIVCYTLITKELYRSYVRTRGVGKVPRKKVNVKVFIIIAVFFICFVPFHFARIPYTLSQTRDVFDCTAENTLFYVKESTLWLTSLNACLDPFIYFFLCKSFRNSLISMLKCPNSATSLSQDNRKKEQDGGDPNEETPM

With CC(C)(C)N/C(=N\C#N)Nc1cccc(/C(=C\CCCC(=O)O)c2cccnc2)c1 [Terbogrel] as the compound, how does the “large mixed platelet/leukocyte aggregates in the low shear area” value [1] read?
The value was “prevented”.

For CNc1cc2ccn(-c3ccc(NC(=O)NS(=O)(=O)c4ccc(Cl)s4)cc3)c(=O)c2cc1F [5-chloro-N-[({4-[7-fluoro-6-(methylamino)-1-oxoisoquinolin-2(1H)-yl]phenyl}amino)carbonyl]thiophene-2-sulfonamide], which “blockade of the P2Y12 receptor” value [2] is on record?
Its value is “full blockade”.

With CNC[C@H](O)c1ccc(O)c(O)c1 [epinephrine] as the compound, how does the “protection of P2Y12-deficient mice from vascular occlusion after FeCl3 injury” value [3] read?
Its value is “rescued”.

What about the “phenotype of P2Y12-deficient mice in a collagen-coated perfusion chamber” value [4] of the same compound?
The value was “correct the phenotype”.

What does the source list for CSc1nc(N)c2ncn([C@@H]3O[C@H](COP(=O)(O)O)[C@@H](O)[C@H]3O)c2n1 [2-MeSAMP]?
aggregation induced by ADP [5]: totally blocks; effect on preformed thrombi, aspirin background [6]: sudden dethrombosis; mean slope after first perfusion (mSAFP), aspirin background [6]: −4.1±0.7; mean slope after first perfusion (mSAFP) [6]: −1.8±0.2; effect on preformed thrombi [6]: marked dethrombosis

Which “effect on preformed thrombi, aspirin background” value (shortened to “effect … aspirin background”) [6] does the source give for CCCCC[C@H](O)/C=C/[C@H]1C(=O)C[C@H](O)[C@@H]1C/C=C\CCCC(=O)O [PDG2, PGD2] here?
Its value is “significant, spontaneous reversal of thrombosis”.

With CCCCCNC(=O)c1coc([C@H]2[C@@H](Cc3ccccc3CCC(=O)O)[C@@H]3CC[C@H]2O3)n1 [Ifetroban] as the compound, how does the “effect … aspirin background” value [6] read?
Its value is “abolished the destabilization effects”.

And the “mean slope after first perfusion (mSAFP)” value [6]?
Its value is −2.5±0.6.

Which results are given for N=C(N)NCCCC[C@@H]1NC(=O)CCSSC[C@@H](C(N)=O)NC(=O)[C@@H]2CCCN2C(=O)[C@H](Cc2c[nH]c3ccccc23)NC(=O)[C@H](CC(=O)O)NC(=O)CNC1=O [eptifibatide] ([Mpa][hArg]GDWPC-NH2; disulfide 1-7)?
effect on preformed thrombi, aspirin background [6]: sudden dethrombosis; mean slope after first perfusion (mSAFP), aspirin background [6]: −2.6±0.9; mean slope after first perfusion (mSAFP) [6]: 0.17±0.22; effect on preformed thrombi [6]: no apparent destabilization; thrombotic profile (real time kinetics of thrombus formation) [7]: flat curve

Which “aspirin effects in RPFA-ASA (Aspirin Reaction Units)” value [8] does the source give for CC(=O)Oc1ccccc1C(=O)O [aspirin] here?
The value was “smaller than that obtained with 50% inhibition of P2Y12”.

And the “large mixed platelet/leukocyte aggregates in the low shear area” value [1]?
Its value is “prevented”.

And the “antithrombotic effects on collagen in combination with P2Y12 inhibitors” value [9]?
Its value is “synergize”.

And the TxB2 generation [10]?
Its TxB2 generation is “abolished”.

What about the “effect … aspirin background” value [6] of the same compound?
Its value is “slow and moderate destabilization”.

And the “mean slope after first perfusion (mSAFP), aspirin background” value [6]?
Its value is −1.07±0.3.

And the “PFA-100 closure time, CEpi cartridge” value ([11]; all donors)?
The value was “prolongation”.

And the “PFA-100 closure time, CADP cartridge” value ([11]; donor 1 (unusual phenotype))?
The value was “increased”.

And the “patients with aspirin-induced asthma” value [12]?
Its value is ≤ 20%.

And the “reduction of post-acute myocardial infarction (AMI) cardiovascular events” value [12]?
Its value is 25-30%.

And the “reduction of the incidence of AMI in the acute phase of unstable angina” value [12]?
The value was “up to 25%”.

And the “thrombotic deposits formed on type III collagen (grey level)” value [13]?
The value was “aspirin effect is observed”.

What about the “arachidonic acid-induced platelet aggregation in PRP” value [14] of the same compound?
Its value is “abolished”.
